Assay results published in patent publication US7745455B2 (priority 2005, dated 2010).
Values joined by “and” are separate entries in the source; they are usually repeats but may differ in a detail not shown here. Identical values can stand only once.

How the values were obtained:
HIV [1] = settings: cited from earlier work
3TC phosphorylation = settings: in vitro, at extremely high ddC concentrations (10 to 100 higher than those of 3TC); cited from earlier work
[2] = human, in vivo; cited from earlier work
[3] = Plasmatic 3TC levels in patients with or without ddC-boosted 3TC treatment; format: in vivo, human; settings: individual HIV patients, one line per patient and date, 3TC with low dose ddC or without ddC
Experimental: It should be noted that for the plasma levels, the peak (post-dose) was at about 2 hours of the drug administration: this is not the case with intracellular triphosphate concentrations where the peaks might occur later than 2 hours post drug administration.

HIV [4] = settings: 300 mg instead of 150 mg; cited from earlier work
ddC phosphorylation = settings: in vitro, identical concentration ratios of 10 to 100 μM; cited from earlier work
3TC-TP formation = settings: in vitro; cited from earlier work
CD4+ = CD4+ count in treated patients (immunological data); format: in vivo, human; settings: individual patients by date; 3TC lines = before ddC was started
[5] = human, in vivo; cited from earlier work; remark: listed apart in the source
HIV [6] = format: in vivo; settings: individual patients by date; 3TC lines = before ddC was started

Row | Structure (SMILES) | concentration needed for antiretroviral activity (in vivo toxicity index) (HIV [1]) | toxic concentration (in vivo toxicity index) (HIV [1]) | inhibition of 3TC phosphorylation (3TC phosphorylation) | plasma levels [2] | concentration at 2 h ([3]; human, in vivo, 3TC plasma levels 2 h post dose) | 3TC plasma levels 2 h post dose [3] | 3TC plasma levels Pre-dose [3] | effect of increased dose on 3TC-TP levels (HIV [4]) | inhibition of ddC phosphorylation (ddC phosphorylation) | extracellular concentration at which 3TC-TP formation is saturated (3TC-TP formation) | CD4+ (CD4+) | 3TC-TP levels reported in the literature [5] | Viral load (HIV [6])
1 | Nc1ccn([C@H]2CC[C@@H](CO)O2)c(=O)n1 [ddC, 2′-3′-dideoxycytidine] | 0.1 µM | 0.2 µM | did inhibit in vitro 3TC phosphorylation | 500 to 1500 nM |  |  |  |  |  |  |  |  | 
2 | Nc1ccn([C@@H]2CS[C@H](CO)O2)c(=O)n1 [3TC, 2′ deoxy-3′-thiacytidine] |  |  |  |  | 700 ng/mL | 779 ng/ml and 1 057 ng/ml | 143 ng/ml and 35 ng/ml (2×) | did not significantly increased the 3TC-TP levels | inhibited ddC phosphorylation in a concentration-dependent manner | 10 µM | 180 and 760 and 220 and 770 | 1-5 μmol/10^6 PBMC | 291 392 ^ and 1 344 ^ and 124 and 445
